Counter-ions that a name gives are not always drawn. Like-named read-outs stand apart in the source and are kept apart here.
What was measured:
[1] = tested on: choroidal MC degranulation; assay type: in vivo, rat
Method: Hydrogel preparation and injection. […] All components were then mixed together by vortex and placed on ice. The final solution was loaded into an insulin syringe with a 31-gauge needle (BD Biosciences, San Jose, Calif., USA) and then, exposed to UV light (AnalytikJena, Upland, Calif., USA) for 1.5 minutes. The release and stability of the hydrogel were evaluated in vitro in PBS, pH 7.4 at 37° C.20. The amount of 48/80 released was measured using bicinchoninic acid (BCA) assay.
Alcian blue staining. After RPE removal, eyecups were fixed in methanol-formalin-acetic acid cocktail for 30 minutes and MCs were further stained with 0.05% Alcian blue (pH 5.0) in 0.02 M sodium acetate buffer for 45 minutes. Choroids were isolated after eyecups were split at the meridian and the number of non-degranulated and degranulated MCs were counted.
RPE degeneration. After the choroid/sclera eyecup was stained with anti-RPE65 Ab, 4-5 fields from the gel and non-gel areas of each choroid were captured as optimized z-stacks at 10 or 20× magnification with Zeiss LSM710. Images were exported to ImageJ software, converted into 8-bit gray color and then, thresholded. The dark area was considered degenerating RPE. To exclude the area of RPE nucleus (unstained with anti-RPE65 Ab, therefore dark) from the total dark area, particle sizes ranging from 100-infinity (pixels^2) were analyzed so nuclei were excluded. Percentage of RPE degeneration was averaged per choroid and then, quantified.
Retinal and choroidal thickness. Eight μm cryosections through the optic nerve were stained with Picrosirius Red Stain Kit (Polysciences, Inc, Warrington, Pa., USA) for 5 minutes as recommended by the manufacturer. After rinsing in hydrochloric acid and dehydrating in ethanol, sections were cover-slipped with Permount Mounting Medium (Thermo Fisher Scientific, Waltham, Mass., USA). The sections were then imaged with a Zeiss Photomic II microscope at 10×, and adjacent overlapping images of each section were taken from Ora serrata to Ora serrata. The overlapping images were then stitched using Adobe Photoshop and a panorama image was generated. The entire retina and choroid of each panorama image was precisely hand-traced and areas of the retina and choroid, respectively, were measured using ImageJ.
(§1) Electroretinogram (ERG). After overnight dark adaptation, rats were deeply anesthetized followed by pupil dilation. The rats were placed on a heated platform and full-field scotopic ERGs were elicited by white light flashes with corneal electrodes at intensities ranging from 0.01 to 1 cd·s/m^2 using the Celeris ERG system (Diagnosys LLC, Lowell, Mass., USA). The amplitude of the a- and b-waves was measured from the a-wave trough to the b-wave peak.
Volumetric and sphericity measurement. Volumetric and sphericity measurements were performed in the rats to analyze changes in shape and size of choroidal macrophages/monocytes stained with Iba1 as previously reported.^23 Briefly, randomly chosen 4-5 fields of optimized 40× magnification z-stacks per choroid captured with Zeiss LSM710 were opened in Surpass View of Imaris software and surfaces (surface detail 1.5 μm) were created, using background subtraction (0.5 μm). Voxel number filtering was applied to remove nonspecific particles in the surfaces created. Cells touching others or ones which had only a portion of the cell body visible were omitted from the volume rendering and then, the cell volume and sphericity were quantified with Imaris software.
(§2) Drug treatments. Rats were pretreated for 1-2 days prior to 48/80 hydrogel injection with either oral treatment of ketotifen fumarate (15 mg/kg) or PBS twice daily. MC tryptase inhibitor APC 366 (5 mg/kg, CAS 258932-85-8, R&D Systems, Minneapolis, Minn.)^24 or control vehicle was administered subcutaneously once daily for 8 weeks.

[2] = mice, osteoarthritis model; cited from earlier work
[3] = Tolerability of oral ketotifen fumarate in rats (RPE, body weight, ERG); assay type: in vivo, rat
Method: as §1, §2

[4] = rats; cited from earlier work
choroidal MCs [5] = assay: Ex vivo eyecup assay, co-incubation with 48/80 (MC degranulation, macrophage volume and sphericity); assay type: cell-based; details: S/D rat eyecups, 48/80 300 μg/mL with ketotifen fumarate 300 μg/mL, 3 hours
Method: (§3) Ex vivo assays. An ex vivo assay was developed to evaluate drugs quickly and efficiently. After enucleation, the anterior segments and retinas were excised and the eyecups were split at the meridian and divided in halves. Then, eyecups were incubated with 300 μg/mL of 48/80 with or without 300 μg/mL of ketotifen fumarate in serum free DMEM in a 48-well plate for 3 hours. To evaluate oral ketotifen fumarate potential to prevent MC degranulation, rats were treated orally twice daily with ketotifen fumarate (15 mg/kg) in PBS or with PBS as control for 4 days and 2 hours prior to enucleation on the 5th day. Eyes were enucleated and exposed in 48/80 serum free DMEM for 3 hours. After washing, RPE was removed and the eyecup fixed for histochemistry. The choroid was isolated from the sclera and MCs were stained for NSE activity and viewed on the Zeiss LSM710 for the autofluorescence of the reaction product. The numbers of non-degranulated and degranulated cells were counted in the whole choroid. […]
(§4) Volumetric and sphericity measurement. […] Cells touching others or ones which had only a portion of the cell body visible were omitted from the volume rendering and then, the cell volume and sphericity were quantified with Imaris software.

RBL-2H3 cells = assay: β-hexosaminidase release assay for MC degranulation in RBL-2H3 cells; assay type: cell-based; details: Rattus norvegicus, RBL-2H3, 0.75 h; 48/80 10 μg/mL, ketotifen fumarate 10 μg/mL, 45 minutes
Method: In vitro assays. RBL-2H3 cells (CRL-2256, ATCC, Manassas, Va., USA) were used for the in vitro assay for MC degranulation. Cell degranulation was assessed by the (3-hexosaminidase release as previously described.^22 A density of 50 000 cells/well was plated overnight in a 96-well plate. Ten μg/mL of 48/80 or 10 μg/mL of ketotifen fumarate (1(2628, Millipore Sigma, St Louis, Mo., USA)+10 μg/mL of 48/80 dissolved in 100 μL serum free media (DMEM with 1.0 g/L glucose) (Thermo Fisher Scientific, Waltham, Mass.) were added to each well and incubated for 45 minutes. Then, the cells were lysed using 1% triton X-100 to determine MC β-hexosaminidase that was still cell associated. Twenty μL of the supernatant and then, the cell lysate was collected and added to 50 μL of cold 4-Nitrophenyl N-acetyl-B-d-glucosaminide (1.3 mg/mL in Citrate Buffer, pH 4.5, Millipore Sigma, St Louis, Mo., USA) to detect the amount of β-hexosaminidase released. […] The plate was read at 405 nm wavelength using a microplate reader (ELx808, BioTek, Winooski, Vt., USA). Degranulation was calculated as the percentage of β-hexosaminidase activity measured in the supernatants relative to the total amount of β-hexosaminidase activity in the cells exposed to 1% triton X-100 (100% degranulation).

choroidal MCs [6] = assay: Ex vivo eyecup assay after oral pretreatment of rats; design: species or system rat; details: oral 15 mg/kg twice daily for 4 days prior to enucleation; eyecups in 48/80 300 μg/ml 3 hours; compared to PBS
Method: as §3, §4

[7] = Pharmacokinetic study of oral ketotifen fumarate in eye tissue (LC/MS-MS); assay type: in vivo, rat; details: 3 mg/kg once daily by gavage, sacrificed on the 5th day
Method: Pharmacokinetic study. Ketotifen fumarate quantification in plasma and eye tissue was conducted using high-performance liquid chromatography with tandem mass spectrometry (LC/MS-MS). Briefly, acetonitrile containing 0.5 μM losartan as internal standard was used to extract ketotifen from choroid and retina. Standards were prepared by spiking ketotifen fumarate in naive tissue from […] in a half log dilution series. Samples were weighed and placed in low retention microcentrifuge tubes with 5 μL extraction solution/mg tissue and pestle homogenized. Samples were vortexed followed by centrifugation at 16 000 g for 5 minutes at 4° C. The supernatants were transferred to a 96-well plate and 2 μL were injected for analysis. Samples were analyzed on an UltiMate 3000 UHPLC coupled to Q Exactive Focus orbitrap mass spectrometer (Thermo Fisher Scientific, Waltham, Mass., USA) using an Agilent EclipsePlus C18 RRHD (1.8 μm; 2.1. 100 mm) column. The mobile phase consisted of water+0.1% formic acid, and acetonitrile+0.1% formic acid. […] Samples were analyzed in positive ion mode via heated electrospray with capillary temperature set at 350° C. and a spray voltage of 3.5 kV. […] Data were acquired and quantified with Xcalibur software (Thermo Fisher Scientific, Waltham, Mass., USA).

[8] = APC 366 5 mg/kg subcutaneous daily, 4 weeks
[9] = oral ketotifen fumarate 15 mg/kg twice daily, 4 weeks post 48/80-hydrogel implantation

**Q.** With `NC(=O)[C@@H]1CCCN1C(=O)[C@H](CCCN=C(N)N)NC(=O)c1ccc2ccccc2c1O` [APC 366] as the molecule, how does the RPE degeneration [1, 8] read?
**A.** RPE degeneration was significantly inhibited

**Q.** What about the choroidal macrophage/monocyte activation [1, 8] of the same molecule?
**A.** choroidal macrophage/monocyte activation was prevented

**Q.** What about the “retinal and choroidal thickness” value ([1]; APC 366 5 mg/kg subcutaneous daily, 8 weeks) of the same molecule?
**A.** significantly less retinochoroidal thinning

**Q.** And the “ERG amplitude, a- and b-waves” value ([1]; rat, in vivo, sc, 5 mg/kg)?
**A.** reduction in ERG amplitude of both a- and b-waves was prevented

**Q.** And the “inflammation (transcriptional expression of IL-1β, IL-6, IL-8, CC-motif ligand 2, MMP-3)” value [2]?
**A.** suppressed inflammation

**Q.** With `CN1CCC(=C2c3ccccc3CC(=O)c3sccc32)CC1` [ketotifen fumarate] as the molecule, how does the “RPE morphology or viability” value ([3]; normal S/D rats, oral 15 mg/kg twice daily for 6 wk) read?
**A.** did not affect RPE morphology or viability

**Q.** What about the “ERG amplitudes after drug treatment alone” value ([3]; normal rats, 6 weeks of drug treatment) of the same molecule?
**A.** normal

**Q.** What about the adverse effects ([3]; oral administration) of the same molecule?
**A.** did not manifest any adverse effects

**Q.** And the “growth of the animals (body weight)” value ([3]; oral twice daily for 6 wk after 48/80 implantations)?
**A.** nor did it affect growth of the animals

**Q.** What about the MC degranulation [1, 9] of the same molecule?
**A.** significantly prevented

**Q.** What about the RPE degeneration [1, 9] of the same molecule?
**A.** significantly prevented RPE degeneration

**Q.** What about the “retina and choroidal thickness” value ([1]; oral ketotifen fumarate 15 mg/kg twice daily, 8 weeks post implantation) of the same molecule?
**A.** retinochoroidal thinning was inhibited

**Q.** What about the “non-REM and REM sleep” value [4] of the same molecule?
**A.** dose dependently decreased non-rapid eye movement (REM) sleep and increased REM sleep

**Q.** And the “choroidal macrophage activation (sphericity, volume of Iba1+ cells)” value (choroidal MCs [5])?
**A.** choroidal macrophage activation was prevented

**Q.** What about the “prevention of 48/80-induced MC degranulation” value (choroidal MCs [5]) of the same molecule?
**A.** prevented MC degranulation, equivalent to the level of untreated eyecups

**Q.** And the inhibition at 10 µg/mL (RBL-2H3 cells)?
**A.** 56%

**Q.** And the MC degranulation prevented (choroidal MCs [6])?
**A.** 37%

**Q.** And the macrophage activation (choroidal MCs [6])?
**A.** significantly prevented macrophage activation

**Q.** And the “ketotifen fumarate in choroid” value [7]?
**A.** 13 to 29 nM

**Q.** And the “ketotifen fumarate in retina” value [7]?
**A.** 12 to 52 nM

Source: patent US20220397569A1, “ASSAY FOR RAPID EVALUATION OF CHOROIDAL MAST CELL DEGRANULATION” (THE JOHNS HOPKINS UNIVERSITY, priority 2019, published 2022)
